Results as given in article PMC11356900, “Synthesis, Structural Properties and Biological Activities of Novel Hydrazones of 2-, 3-, 4-Iodobenzoic Acid” (Molecules, 2024).
Values after ≈ are worked out from the molar mass of the structure shown.

Experiments:
[1] = tested on: A549 cell line; assay: MTT cytotoxicity assay; assay type: cell-based
Procedure: (§1) Among all the newly synthesized compounds, four compounds designated as: 14, 20, 21 and 27 were selected for further testing of their cytotoxic properties at the doses of 10, 25, 50, 75 and 100 µM. The cytotoxic properties of the above compounds were tested on the cancer cell lines, i.e., A549 (ECACC 86012804) (non-small-cell lung cancer), T47D (ECACC 85102201) (breast cancer), HeLa (ATCC® CCL-2™) (cervical cancer) and normal line L929 (NCTC clone 929, ATCC® CCL-1™) (mouse fibroblasts) using the MTT test for 24- and 48 h cultures.
(§2) A549 (ECACC 86012804) (non-small-cell lung cancer) and T47D (ECACC 85102201) (breast cancer) were obtained from ECACC and propagated in Dulbecco’s Minimal Essential Medium, supplemented with 2 mM of glutamine, antibiotics ([…] streptomycin, 1% of 100 U/L penicillin) and 10% Fetal Bovine Serum. HeLa (ATCC® CCL-2™) (cervical cancer) and L929 (NCTC clone 929, ATCC® CCL-1™) (mouse fibroblasts) cell lines were obtained from ATCC and propagated in the Eagle Minimal Essential Medium supplemented with antibiotics ([…] streptomycin, 1% of 100 U/L penicillin) and with 10% and 5% FBS, respectively. The cell line was routinely grown in 75 cm^2 tissue culture flasks and kept in an incubator (humidified atmosphere of 5% CO2 at 37 °C). All examined cell lines were tested against mycoplasma contamination with microbiological assays.
(§3) The cell viability of tested compounds (14, 20, 21 and 27) was assessed by the MTT assay. In brief, the exponentially growing cells were plated in 100 μL/well in 96-well plates. After 24 h culturing, the cells were treated with different concentrations of compounds (range 10–100 μM). After 24 and 48 h of incubation, 10 μL of 5 mg/mL MTT was added to each well and the plates were incubated at 37 °C for additional 4 h. The medium was subsequently removed, the purple-colored precipitates of formazan were dissolved in 100 μL of DMSO. The color absorbance was recorded at 570 nm using a BioTek model EPOCH ELISA plate reader. All experiments were performed in triplicate. The absorbance values were in the range of linearity of the Lambert–Beer law.

[2] = tested on: HeLa cell line; assay: MTT cytotoxicity assay; assay type: cell-based
Procedure: as §1, §2, §3

[3] = tested on: T47D cell line; assay: MTT cytotoxicity assay; assay type: cell-based
Procedure: as §1, §2, §3

[4] = tested on: Staphylococcus aureus ATCC 25923; assay: Broth microdilution MIC/MBC; conditions: Staphylococcus aureus, ATCC25923
[5] = tested on: Staphylococcus aureus ATCC 29213; assay: Broth microdilution MIC/MBC; conditions: ATCC29213
[6] = tested on: Staphylococcus aureus ATCC 43300; assay: Broth microdilution MIC/MBC; conditions: ATCC43300 / MRSA
[7] = tested on: Micrococcus luteus ATCC 10240; assay: Broth microdilution MIC/MBC; conditions: Micrococcus luteus, ATCC10240
[8] = tested on: Bacillus cereus ATCC 10876; assay: Broth microdilution MIC/MBC; conditions: Bacillus cereus, ATCC10876
[9] = tested on: Proteus mirabilis ATCC 12453; assay: Broth microdilution MIC/MBC; conditions: ATCC12453
[10] = tested on: Escherichia coli ATCC 25922; assay: Broth microdilution MIC/MBC; conditions: ATCC25922
[11] = tested on: Salmonella typhimurium ATCC 14028; assay: Broth microdilution MIC/MBC; conditions: Salmonella enterica

O=C(N/N=C/c1cc(Br)cc(Br)c1O)c1cccc(I)c1 [Compound 21, N-[(3,5-dibromo-2-hydroxyphenyl)methylidene]-3-iodobenzohydrazide]
cell proliferation ([1]; A549, 24h, 10 µM, Repeat No 1): 88%
cell proliferation ([1]; A549, 24h, 10 µM, Repeat No 2): 99%
cell proliferation ([1]; A549, 24h, 25 µM, Repeat No 1): 88%
cell proliferation ([1]; A549, 24h, 25 µM, Repeat No 2): 88%
cell proliferation ([1]; A549, 24h, 50 µM, Repeat No 1): 92%
cell proliferation ([1]; A549, 24h, 50 µM, Repeat No 2): 101%
cell proliferation ([1]; A549, 24h, 75 µM, Repeat No 1): 103%
cell proliferation ([1]; A549, 24h, 75 µM, Repeat No 2): 99%
cell proliferation ([1]; A549, 24h, 100 µM, Repeat No 1): 87%
cell proliferation ([1]; A549, 24h, 100 µM, Repeat No 2): 94%
cell proliferation ([1]; A549, 48h, 10 µM, Repeat No 1): 92%
cell proliferation ([1]; A549, 48h, 10 µM, Repeat No 2): 99%
cell proliferation ([1]; A549, 48h, 25 µM, Repeat No 1): 94%
cell proliferation ([1]; A549, 48h, 25 µM, Repeat No 2): 91%
cell proliferation ([1]; A549, 48h, 50 µM, Repeat No 1): 97%
cell proliferation ([1]; A549, 48h, 50 µM, Repeat No 2): 91%
cell proliferation ([1]; A549, 48h, 75 µM, Repeat No 1): 83%
cell proliferation ([1]; A549, 48h, 75 µM, Repeat No 2): 87%
cell proliferation ([1]; A549, 48h, 100 µM, Repeat No 1): 91%
cell proliferation ([1]; A549, 48h, 100 µM, Repeat No 2): 87%
cell proliferation ([2]; 24h, 10 µM, Repeat No 1): 89%
cell proliferation ([2]; 24h, 10 µM, Repeat No 2): 88%
cell proliferation ([2]; 24h, 25 µM, Repeat No 1): 89%
cell proliferation ([2]; 24h, 25 µM, Repeat No 2): 92%
cell proliferation ([2]; 24h, 50 µM, Repeat No 1): 86%
cell proliferation ([2]; 24h, 50 µM, Repeat No 2): 104%
cell proliferation ([2]; 24h, 75 µM, Repeat No 1): 104%
cell proliferation ([2]; 24h, 75 µM, Repeat No 2): 87%
cell proliferation ([2]; 24h, 100 µM, Repeat No 1): 87%
cell proliferation ([2]; 24h, 100 µM, Repeat No 2): 91%
cell proliferation ([2]; 48h, 10 µM, Repeat No 1): 86%
cell proliferation ([2]; 48h, 10 µM, Repeat No 2): 93%
cell proliferation ([2]; 48h, 25 µM, Repeat No 1): 101%
cell proliferation ([2]; 48h, 25 µM, Repeat No 2): 97%
cell proliferation ([2]; 48h, 50 µM, Repeat No 1): 81%
cell proliferation ([2]; 48h, 50 µM, Repeat No 2): 87%
cell proliferation ([2]; 48h, 75 µM, Repeat No 1): 91%
cell proliferation ([2]; 48h, 75 µM, Repeat No 2): 89%
cell proliferation ([2]; 48h, 100 µM, Repeat No 1): 88%
cell proliferation ([2]; 48h, 100 µM, Repeat No 2): 92%
cell proliferation ([3]; 24h, 10 µM, Repeat No 1): 82%
cell proliferation ([3]; 24h, 10 µM, Repeat No 2): 84%
cell proliferation ([3]; 24h, 25 µM, Repeat No 1): 83%
cell proliferation ([3]; 24h, 25 µM, Repeat No 2): 88%
cell proliferation ([3]; 24h, 50 µM, Repeat No 1): 78%
cell proliferation ([3]; 24h, 50 µM, Repeat No 2): 76%
cell proliferation ([3]; 24h, 75 µM, Repeat No 1): 71%
cell proliferation ([3]; 24h, 75 µM, Repeat No 2): 79%
cell proliferation ([3]; 24h, 100 µM, Repeat No 1): 73%
cell proliferation ([3]; 24h, 100 µM, Repeat No 2): 78%
cell proliferation ([3]; 48h, 10 µM, Repeat No 1): 79%
cell proliferation ([3]; 48h, 10 µM, Repeat No 2): 71%
cell proliferation ([3]; 48h, 25 µM, Repeat No 1): 79%
cell proliferation ([3]; 48h, 25 µM, Repeat No 2): 81%
cell proliferation ([3]; 48h, 50 µM, Repeat No 1): 81%
cell proliferation ([3]; 48h, 50 µM, Repeat No 2): 79%
cell proliferation ([3]; 48h, 75 µM, Repeat No 1): 69%
cell proliferation ([3]; 48h, 75 µM, Repeat No 2): 74%
cell proliferation ([3]; 48h, 100 µM, Repeat No 1): 78%
cell proliferation ([3]; 48h, 100 µM, Repeat No 2): 71%
melting point: 210 to 211 °C
MBC [4]: 31.2 mg/L (≈ 59.6 µM)
MIC [4]: 7.81 mg/L (≈ 14.9 µM)
MBC [5]: 15.6 mg/L (≈ 29.8 µM)
MIC [5]: 15.6 mg/L (≈ 29.8 µM)
MBC [6]: 62.5 mg/L (≈ 119 µM)
MIC [6]: 15.6 mg/L (≈ 29.8 µM)
MBC [7]: 15.6 mg/L (≈ 29.8 µM)
MIC [7]: 3.91 mg/L (≈ 7.46 µM)
MBC [8]: 62.5 mg/L (≈ 119 µM)
MIC [8]: 15.6 mg/L (≈ 29.8 µM)
MIC [9]: > 1000 mg/L
MIC [10]: > 1000 mg/L
MIC [11]: > 1000 mg/L
